pIC50: −log10 of the molar value. The source made the active and inactive calls. The calls are words filed in the database; no cut-off is given here.
Experiments:
P2X purinoceptor 7 [1] = molecular target: T1, P2X purinoceptor 7 (Homo sapiens, UniProt Q99572); experiment: Antagonist activity at human P2X7 receptor transfected in THP1 cells assessed as inhibition of benzoyl-ATP-induced changes in plasma membrane pore formation; format: functional, cell-based, THP-1; conditions: read-out: pA2 (converted)
T1 sequence (Q99572 whole entry): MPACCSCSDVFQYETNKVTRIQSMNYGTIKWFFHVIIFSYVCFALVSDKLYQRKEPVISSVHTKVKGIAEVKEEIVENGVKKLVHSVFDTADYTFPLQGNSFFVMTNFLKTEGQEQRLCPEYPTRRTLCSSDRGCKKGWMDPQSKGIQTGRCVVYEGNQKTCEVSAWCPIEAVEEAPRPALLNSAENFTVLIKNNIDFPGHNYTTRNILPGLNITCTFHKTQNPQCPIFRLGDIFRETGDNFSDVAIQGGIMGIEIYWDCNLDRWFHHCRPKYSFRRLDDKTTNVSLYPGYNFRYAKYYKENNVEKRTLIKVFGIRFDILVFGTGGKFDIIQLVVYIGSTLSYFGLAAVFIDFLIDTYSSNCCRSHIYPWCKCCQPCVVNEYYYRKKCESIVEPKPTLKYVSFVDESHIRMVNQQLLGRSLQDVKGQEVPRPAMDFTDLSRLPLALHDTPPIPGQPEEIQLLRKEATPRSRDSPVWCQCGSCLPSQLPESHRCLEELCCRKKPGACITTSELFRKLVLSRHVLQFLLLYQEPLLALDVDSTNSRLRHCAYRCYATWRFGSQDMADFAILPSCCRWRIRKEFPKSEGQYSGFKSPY

P2X purinoceptor 7 [2] = molecular target: T2, P2X purinoceptor 7 (Rattus norvegicus, UniProt Q64663); experiment: Antagonist activity at rat P2X7 receptor transfected in HEK cells assessed as inhibition of benzoyl-ATP-induced changes in plasma membrane pore formation; format: functional, cell-based, HEK293; conditions: for IC50: read-out: Log IC50 (converted); for Kb: read-out: pA2 (converted); for pIC50: read-out: IC50
T2 sequence (Q64663 whole entry): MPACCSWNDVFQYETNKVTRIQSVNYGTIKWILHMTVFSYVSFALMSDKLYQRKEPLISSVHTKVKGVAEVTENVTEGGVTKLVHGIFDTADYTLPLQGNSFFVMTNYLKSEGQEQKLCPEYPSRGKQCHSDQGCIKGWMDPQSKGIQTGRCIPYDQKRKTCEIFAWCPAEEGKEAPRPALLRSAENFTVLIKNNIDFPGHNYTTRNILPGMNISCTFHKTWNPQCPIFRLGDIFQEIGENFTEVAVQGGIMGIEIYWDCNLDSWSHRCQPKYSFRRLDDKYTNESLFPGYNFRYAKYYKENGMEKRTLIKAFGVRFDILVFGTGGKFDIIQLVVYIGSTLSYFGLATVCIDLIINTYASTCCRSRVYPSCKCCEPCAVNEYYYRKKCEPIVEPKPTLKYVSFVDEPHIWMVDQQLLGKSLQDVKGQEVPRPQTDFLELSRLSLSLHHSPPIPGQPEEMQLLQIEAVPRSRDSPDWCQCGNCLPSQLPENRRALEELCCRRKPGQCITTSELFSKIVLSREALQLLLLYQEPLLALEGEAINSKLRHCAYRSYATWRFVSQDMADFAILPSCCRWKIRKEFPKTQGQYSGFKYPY

[3] = Protein binding in rat plasma; format: ADME, cell-free; conditions: read-out: PPB (converted)
Vasopressin V1a receptor = Vasopressin V1a receptor (Homo sapiens, UniProt P37288); experiment: Activity at vasopressin V1A receptor
Vasopressin V1a receptor, sequence (P37288 whole entry): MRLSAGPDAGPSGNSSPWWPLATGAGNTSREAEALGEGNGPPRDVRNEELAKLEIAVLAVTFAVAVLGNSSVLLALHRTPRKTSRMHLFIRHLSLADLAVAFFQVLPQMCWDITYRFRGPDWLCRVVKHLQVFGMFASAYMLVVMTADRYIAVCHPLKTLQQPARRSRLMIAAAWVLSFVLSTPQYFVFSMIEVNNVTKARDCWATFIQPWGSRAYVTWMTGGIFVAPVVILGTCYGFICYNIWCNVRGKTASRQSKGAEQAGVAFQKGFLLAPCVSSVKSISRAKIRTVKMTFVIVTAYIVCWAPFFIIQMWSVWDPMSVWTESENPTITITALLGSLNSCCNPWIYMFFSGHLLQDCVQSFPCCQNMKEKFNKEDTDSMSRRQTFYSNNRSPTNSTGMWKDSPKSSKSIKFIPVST

[4] = Activity at sigma receptor; set-up: species or system Homo sapiens
[5] = molecular target: T3, P2X purinoceptor 1 (Homo sapiens) (UniProt P51575); experiment: Activity at human P2X1 receptor at 10 uM
T3 sequence (whole entry): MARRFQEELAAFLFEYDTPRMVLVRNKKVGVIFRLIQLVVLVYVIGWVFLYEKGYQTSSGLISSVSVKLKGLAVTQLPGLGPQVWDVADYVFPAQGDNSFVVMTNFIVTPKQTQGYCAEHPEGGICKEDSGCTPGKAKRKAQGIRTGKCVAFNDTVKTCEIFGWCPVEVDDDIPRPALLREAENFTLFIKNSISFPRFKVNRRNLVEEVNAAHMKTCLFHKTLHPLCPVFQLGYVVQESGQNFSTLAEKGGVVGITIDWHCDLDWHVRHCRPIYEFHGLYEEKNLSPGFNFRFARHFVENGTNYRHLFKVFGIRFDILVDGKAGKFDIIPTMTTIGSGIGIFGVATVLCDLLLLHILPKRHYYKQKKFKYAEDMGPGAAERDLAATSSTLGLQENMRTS

[6] = molecular target: T4, P2X purinoceptor 3 (Homo sapiens) (UniProt P56373); experiment: Activity at human P2X3 receptor at 10 uM
T4 sequence (whole entry): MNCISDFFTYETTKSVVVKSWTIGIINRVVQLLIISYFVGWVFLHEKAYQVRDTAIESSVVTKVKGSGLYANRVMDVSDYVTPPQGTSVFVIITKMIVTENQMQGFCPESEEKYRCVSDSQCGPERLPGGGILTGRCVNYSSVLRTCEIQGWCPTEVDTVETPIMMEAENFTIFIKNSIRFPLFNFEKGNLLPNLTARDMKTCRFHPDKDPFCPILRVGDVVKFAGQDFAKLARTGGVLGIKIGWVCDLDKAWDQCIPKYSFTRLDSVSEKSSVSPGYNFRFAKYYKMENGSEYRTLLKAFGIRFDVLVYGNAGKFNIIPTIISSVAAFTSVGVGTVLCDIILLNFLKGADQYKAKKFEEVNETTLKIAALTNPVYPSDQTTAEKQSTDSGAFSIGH

[7] = molecular target: T5, P2X purinoceptor 4 (Homo sapiens) (UniProt Q99571); experiment: Activity at human P2X4 receptor at 10 uM
T5 sequence (whole entry): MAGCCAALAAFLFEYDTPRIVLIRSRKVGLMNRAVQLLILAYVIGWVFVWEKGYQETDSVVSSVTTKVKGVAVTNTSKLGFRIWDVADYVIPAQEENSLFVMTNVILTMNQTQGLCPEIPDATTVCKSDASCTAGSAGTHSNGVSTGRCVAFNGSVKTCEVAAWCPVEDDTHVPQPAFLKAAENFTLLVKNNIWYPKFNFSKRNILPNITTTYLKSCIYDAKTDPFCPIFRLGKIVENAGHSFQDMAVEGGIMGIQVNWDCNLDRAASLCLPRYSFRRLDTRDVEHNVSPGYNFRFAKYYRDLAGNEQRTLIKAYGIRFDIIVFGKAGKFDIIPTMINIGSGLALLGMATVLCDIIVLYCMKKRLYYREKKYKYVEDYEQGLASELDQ

[8] = molecular target: P2X purinoceptor 5 (Homo sapiens) (UniProt Q93086); experiment: Activity at human P2X5 receptor at 10 uM
P2X purinoceptor 5 (Homo sapiens), sequence (Q93086 whole entry): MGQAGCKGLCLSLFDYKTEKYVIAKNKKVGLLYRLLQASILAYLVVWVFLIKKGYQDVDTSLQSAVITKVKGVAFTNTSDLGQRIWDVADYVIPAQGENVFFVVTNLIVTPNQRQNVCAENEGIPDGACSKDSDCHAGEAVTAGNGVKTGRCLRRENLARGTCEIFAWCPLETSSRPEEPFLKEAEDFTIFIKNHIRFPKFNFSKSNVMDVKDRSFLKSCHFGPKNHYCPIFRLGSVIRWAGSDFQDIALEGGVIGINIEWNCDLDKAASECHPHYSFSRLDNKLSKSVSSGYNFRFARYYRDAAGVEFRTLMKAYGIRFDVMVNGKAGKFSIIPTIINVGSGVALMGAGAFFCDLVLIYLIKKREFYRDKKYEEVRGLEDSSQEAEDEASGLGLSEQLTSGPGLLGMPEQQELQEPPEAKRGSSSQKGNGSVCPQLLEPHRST

[9] = molecular target: T6, P2X purinoceptor 2 (Rattus norvegicus) (UniProt P49653); experiment: Activity at rat P2X2 receptor at 10 uM
T6 sequence (whole entry): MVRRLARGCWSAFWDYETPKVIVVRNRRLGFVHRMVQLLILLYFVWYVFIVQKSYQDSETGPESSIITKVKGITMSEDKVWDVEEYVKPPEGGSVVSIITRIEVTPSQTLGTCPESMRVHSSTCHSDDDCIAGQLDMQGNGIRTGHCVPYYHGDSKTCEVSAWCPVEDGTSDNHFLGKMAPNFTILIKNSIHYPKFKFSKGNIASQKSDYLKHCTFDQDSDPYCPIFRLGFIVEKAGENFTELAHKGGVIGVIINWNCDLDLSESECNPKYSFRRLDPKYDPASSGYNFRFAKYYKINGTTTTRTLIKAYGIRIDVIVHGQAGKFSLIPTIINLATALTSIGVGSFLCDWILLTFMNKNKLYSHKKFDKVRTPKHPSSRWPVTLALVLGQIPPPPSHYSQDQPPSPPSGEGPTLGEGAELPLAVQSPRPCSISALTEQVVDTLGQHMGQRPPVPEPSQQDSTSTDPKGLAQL

Rattus norvegicus = species on record: Rattus norvegicus; experiment: Activity at rat P2X2/3 heteromeric receptor at 10 uM
Monocyte [10] = experiment: Inhibition of BzATP-induced IL1-beta release from LPS-primed human monocytes by ELISA; format: functional, cell-based
Monocyte [11] = experiment: Inhibition of BzATP-induced IL18 release from LPS-primed human monocytes by ELISA; format: functional, cell-based
Hepatocyte [12] = experiment: Intrinsic clearance in human hepatocytes; format: ADME, cell-based, Liver
Hepatocyte [13] = experiment: Intrinsic clearance in rat hepatocytes; format: ADME, cell-based, Liver
[14] = Clearance in Sprague-Dawley rat; format: ADME, organism-based; conditions: in vivo
[15] = Volume of distribution at steady state in Sprague-Dawley rat; format: ADME, organism-based; conditions: in vivo, read-out: Vdss
[16] = Half life in Sprague-Dawley rat; format: ADME, organism-based; conditions: in vivo
[17] = Bioavailability in Sprague-Dawley rat; format: ADME, organism-based; conditions: in vivo

Kb (P2X purinoceptor 7 [1])	IC50 (P2X purinoceptor 7 [2])	Structure (SMILES)	further results
> 10000 nM	> 10000 nM	O=C(NCC12CC3CC(CC(C3)C1)C2)c1c(Cl)cccc1OC1CCNCC1	
		Cc1ccc(C(=O)N2CC3CNCC(C2)O3)cc1C(=O)NCC12CC3CC(CC(C3)C1)C2	Kb (P2X purinoceptor 7 [2]): 15.8 nM; fraction unbound [3]: 0.34; pIC50 (Vasopressin V1a receptor): 5.15; pIC50 [4]: 5.40; Activity [5]: inactive; Activity [6]: inactive; Activity [7]: inactive; Activity [8]: inactive; Activity [9]: inactive; Activity (Rattus norvegicus): inactive
15.8 nM	316 nM	O=C(NCC12CC3CC(CC(C3)C1)C2)c1cc(C2CCNCC2)ccc1Cl	
316 nM	> 10000 nM	Cc1sc(CN2CCNCC2)cc1C(=O)NCC12CC3CC(CC(C3)C1)C2	
25.1 nM	501 nM	O=C(NCC12CC3CC(CC(C3)C1)C2)c1cc(NC2CCNCC2)ccc1Cl	
5.01 nM		O=C(NCC12CC3CC(CC(C3)C1)C2)c1cc(NC2CCCNC2)ccc1Cl (racemic)	pIC50 (P2X purinoceptor 7 [2]): 7.52
200 nM	> 10000 nM	O=C(NCC12CC3CC(CC(C3)C1)C2)c1cccc(CN2CCCCC2)c1Cl	
10 nM	398 nM	O=C(NCC12CC3CC(CC(C3)C1)C2)c1cc(CN2CCNCC2)ccc1Cl	pIC50 (Monocyte [10]): 7.10; pIC50 (Monocyte [11]): 7.40; CL (Hepatocyte [12]): < 3 µL/min; CL (Hepatocyte [13]): < 5 µL/min; clearance [14]: 13 mL/min/kg; Vd [15]: 5.31 L/kg; half-life [16]: 5.2 h; bioavailability [17]: 79%
126 nM	794 nM	O=C(NCC12CC3CC(CC(C3)C1)C2)c1ccc(CN2CCCCC2)cc1Cl	
> 10000 nM	> 10000 nM	Cc1oc(CN2CCNCC2)cc1C(=O)NCC12CC3CC(CC(C3)C1)C2	Activity (Monocyte [10]): inactive; Activity (Monocyte [11]): Active
5.01 nM	251 nM	O=C(NCC12CC3CC(CC(C3)C1)C2)c1cc(CN2C[C@@H]3C[C@H]2CN3)ccc1Cl	
6.31 nM		O=C(NCC12CC3CC(CC(C3)C1)C2)c1cc(CC2CCCNC2)ccc1Cl (racemic)	pIC50 (P2X purinoceptor 7 [2]): 7.52
6.31 nM	316 nM	O=C(NCC12CC3CC(CC(C3)C1)C2)c1cc(O[C@@H]2CCCNC2)ccc1Cl	
		O=C(NCC12CC3CC(CC(C3)C1)C2)c1cc(C(=O)N2CC3CNCC(C2)O3)ccc1Cl	pIC50 (Vasopressin V1a receptor): 5.15; pIC50 [4]: 5.40; Activity [6]: inactive; Activity [7]: inactive; Activity [8]: inactive; Activity [9]: inactive; Activity (Rattus norvegicus): inactive
15.8 nM	631 nM	O=C(NCC12CC3CC(CC(C3)C1)C2)c1cc(OC2CCNCC2)ccc1Cl	
15.8 nM	63.1 nM	O=C(NCC12CC3CC(CC(C3)C1)C2)c1cc(CC2CCNCC2)ccc1Cl	
10 nM	100 nM	O=C(NCC12CC3CC(CC(C3)C1)C2)c1cc(O[C@H]2CCCNC2)ccc1Cl	
251 nM	316 nM	O=C(NCC12CC3CC(CC(C3)C1)C2)c1nc(OC2CCCNC2)ncc1Cl (centres undefined)	
		O=C(NCC12CC3CC(CC(C3)C1)C2)c1cc(CN2CC3CNCC(C2)O3)ccc1Cl	Kb (P2X purinoceptor 7 [2]): 25.1 nM
1580 nM	794 nM	Cc1nnc(OC2CCNCC2)cc1C(=O)NCC12CC3CC(CC(C3)C1)C2	

Structure (SMILES)	Kb (P2X purinoceptor 7 [1])	IC50 (P2X purinoceptor 7 [2])	further results
O=C(NCC12CC3CC(CC(C3)C1)C2)c1cc(N2CCNCC2)ccc1Cl	31.6 nM	1260 nM	
